Experimental findings from patent US20260347364A1, “PYRAZOLO[4,3-F]QUINAZOLINE DERIVATIVES AS MODULATORS OF G12D MUTANT KRAS USEFUL FOR THE TREATMENT OF CANCER” (JAZZ PHARMACEUTICALS IRELAND LTD., priority 2023, published 2026) are described below.

Test [1] concerns the target T1, KRAS WT (Homo sapiens, UniProt P01116).
T1 construct: aa1-188 KRAS WT
Briefly: HTRF nucleotide exchange assay, KRAS WT. Type of test: biochemical. The following applies: class symbols; for IC50: HTRF nucleotide exchange assay (NEA). On the procedure:
(§1) HTRF Nucleotide Exchange Assay Method
(§2) The capacity of compounds to bind KRAS G12D, other KRAS mutants and wildtype RAS isoforms was quantified using a HTRF nucleotide exchange assay. Recombinant human RAS protein (2 nM; aa1-188 KRAS WT, HRAS WT, NRAS WT, or KRAS containing the G12D, G13D or Q61H amino acid substitutions, or 4 nM KRAS; aa1-188 containing the G12V, G12C, G12A or G12S amino acid substitution, an N-terminal 6× His-tag and leader sequence), and 2 nM Europium-labeled anti-6× His antibody were mixed in assay buffer (10 mM HEPES pH 7.3, 150 mM NaCl, 5 mM MgCl2, 0.05% BSA, 0.0025% NP-40 and 100 mM KF) with various concentrations of compound in a 384-well plate and a volume of 5 μL. After a 60-minute incubation at room temperature, 5 μl of 200 nM EDA-GTP-DY647P1 (diluted in assay buffer) was added to the plate. Following 30-minute incubation at room temperature, time-resolved fluorescence was measured on a PerkinElmer Envision plate reader. DMSO (0.3%) and unlabeled GDP (1 μM) or equivalent tool compound were used to generate the Max and Min assay signals, respectively. Data was analysed using a four-parameter logistic model to calculate IC50 values, with at least two independent replicates were performed for each compound. The results are presented as IC50s in Table 29 where “A” corresponds to an IC50 ≤10 nM, “B” to an IC50 >10 nM up to 100 nM, “C” is >100 nM up to 10 μM, “D” represents <49% inhibition at 10 μM and ND=not determined: […]
(In general: TR-FRET usually uses a lanthanide donor and a delayed reading to cut background.)

In test [2] the target is T2, KRAS G12D (Homo sapiens, UniProt P01116, G12D).
T2 construct: aa1-188 KRAS WT, HRAS WT, NRAS WT, or KRAS containing the G12D
Briefly: HTRF nucleotide exchange assay, KRAS G12D. It is filed as biochemical. The following applies: class symbols; for IC50: HTRF nucleotide exchange assay (NEA). As to the method:
as §1, §2

Broadly, the IC50 is the concentration that gives 50% inhibition. Turning to `CCc1c(F)ccc2cc(O)cc(-c3cc4nc(OCC5(CN(C)C)CC5)nc(N5CCCOCC5)c4c4cn(C)nc34)c12` [Example 30, 4-[7-[[1-[(dimethylamino)methyl]cyclopropyl]methoxy]-2-methyl-9-(1,4-oxazepan-4-yl)pyrazolo[4,3-f]quinazolin-4-yl]-5-ethyl-6-fluoro-naphthalen-2-ol], the IC50 in test [1] and in test [2] was 10 to 100 nM each time.
`CCc1c(F)ccc2cc(O)cc(-c3cc4nc(OCC5CCN(C)CC5)nc(N5CCCOCC5)c4c4cn(C)nc34)c12` [Example 31, 5-ethyl-6-fluoro-4-[2-methyl-7-[(1-methyl-4-piperidyl)methoxy]-9-(1,4-oxazepan-4-yl)pyrazolo[4,3-f]quinazolin-4-yl]naphthalen-2-ol]: the IC50 in test [1] and in test [2] was 100 to 10000 nM in each case.
As for `CCc1c(F)ccc2cc(O)cc(-c3cc4nc(OCC5CCCN(C)C5)nc(N5CCCOCC5)c4c4cn(C)nc34)c12` (stereo not shown) [Example 32, 5-ethyl-6-fluoro-4-[2-methyl-7-[(1-methyl-3-piperidyl)methoxy]-9-(1,4-oxazepan-4-yl)pyrazolo[4,3-f]quinazolin-4-yl]naphthalen-2-ol], the IC50 in test [1] and in test [2] was 100 to 10000 nM each time.
Turning to `C#Cc1c(F)ccc2cc(O)cc(-c3cc4nc(OC[C@@]56CCCN5C[C@H](F)C6)nc(N5CCCC(C)(O)C5)c4c4cn(C)nc34)c12` (stereo partly drawn) [Example 33, 1-[4-(8-ethynyl-7-fluoro-3-hydroxy-1-naphthyl)-2-methyl-7-[[(2R,8S)-2-fluoro-1,2,3,5,6,7-hexahydropyrrolizin-8-yl]methoxy]pyrazolo[4,3-f]quinazolin-9-yl]-3-methyl-piperidin-3-ol], the IC50 in test [1] and in test [2] was 10 to 100 nM in each case.
For the compound `C#Cc1c(F)ccc2cc(O)cc(-c3cc4nc(OC[C@@]56CCCN5C[C@H](F)C6)nc(N5CC6CNCC6C5)c4c4cn(C)nc34)c12` (stereo partly drawn) [Example 34, 4-[9-(2,3,3a,4,6,6a-hexahydro-1H-pyrrolo[3,4-c]pyrrol-5-yl)-2-methyl-7-[[(2R,8S)-2-fluoro-1,2,3,5,6,7-hexahydropyrrolizin-8-yl]methoxy]pyrazolo[4,3-f]quinazolin-4-yl]-5-ethynyl-6-fluoro-naphthalen-2-ol], the IC50 in test [1] is 100 to 10000 nM; in test [2] it was at most 10 nM.
Take `C#Cc1c(F)ccc2cc(O)cc(-c3cc4nc(OC[C@@]56CCCN5C[C@H](F)C6)nc(N5CC6C(=O)NC(=O)C6C5)c4c4cn(C)nc34)c12` (stereo partly shown) [Example 37]: in test [1], the “KRAS^WT NEA” value was “D (<49% inhibition at 10 μM)”. Besides, the IC50 in test [2] is 100 to 10000 nM.
As for `Cn1cc2c(n1)c(-c1cc(O)ccc1OC(F)(F)F)cc1nc(OC[C@@]34CCCN3C[C@H](F)C4)nc(N3CCCOCC3)c12` [Example 38, 3-[2-methyl-9-(1,4-oxazepan-4-yl)-7-[[(2R,8S)-2-fluoro-1,2,3,5,6,7-hexahydropyrrolizin-8-yl]methoxy]pyrazolo[4,3-f]quinazolin-4-yl]-4-(trifluoromethoxy)phenol], the IC50 in test [1] and in test [2] was 100 to 10000 nM each time.
Regarding `Cn1cc2c(n1)c(-c1cc(O)cc3ccc(F)c(F)c13)cc1nc(OC[C@@]34CCCN3C[C@H](F)C4)nc(N3CCCOCC3)c12` [Example 39], the IC50 in test [1] and in test [2] was 10 to 100 nM each time.
`CCc1c(F)ccc2cc(O)cc(-c3cc4nc(OC[C@@]56CCCN5C[C@H](F)C6)nc(N5CCOC[C@@](C)(O)C5)c4c4cn(C)nc34)c12` [Example 40, (6S)-4-[4-(8-ethyl-7-fluoro-3-hydroxy-1-naphthyl)-2-methyl-7-[[(2R,8S)-2-fluoro-1,2,3,5,6,7-hexahydropyrrolizin-8-yl]methoxy]pyrazolo[4,3-f]quinazolin-9-yl]-6-methyl-1,4-oxazepan-6-ol]: the IC50 in test [1] and in test [2] was at most 10 nM each time.
In the case of `CCc1c(F)ccc2cc(O)cc(-c3cc4nc(OC[C@@]56CCCN5C[C@H](F)C6)nc(N5CCOC[C@](C)(O)C5)c4c4cn(C)nc34)c12` [Example 41, (6R)-4-[4-(8-ethyl-7-fluoro-3-hydroxy-1-naphthyl)-2-methyl-7-[[(2R,8S)-2-fluoro-1,2,3,5,6,7-hexahydropyrrolizin-8-yl]methoxy]pyrazolo[4,3-f]quinazolin-9-yl]-6-methyl-1,4-oxazepan-6-ol], the IC50 in test [1] and in test [2] was 10 to 100 nM each time.
As for `CCc1c(F)ccc2cc(O)cc(-c3cc4nc(OC[C@@]56CCCN5C[C@H](F)C6)nc(N5CCCC(O)CC5)c4c4cn(C)nc34)c12` (stereo partly drawn) [Example 42, 1-[4-(8-ethyl-7-fluoro-3-hydroxy-1-naphthyl)-2-methyl-7-[[(2R,8S)-2-fluoro-1,2,3,5,6,7-hexahydropyrrolizin-8-yl]methoxy]pyrazolo[4,3-f]quinazolin-9-yl]azepan-4-ol], the IC50 in test [1] and in test [2] was 10 to 100 nM each time.
Regarding `C#Cc1c(F)ccc2cc(O)cc(-c3cc4nc(OC[C@@]56CCCN5C[C@H](F)C6)nc(N5CCCCC(C)(O)C5)c4c4cn(C)nc34)c12` (stereo partly shown) [Example 43], the IC50 in test [1] and in test [2] was at most 10 nM throughout.
In the case of `CCc1c(F)ccc2cc(O)cc(-c3cc4nc(OC[C@@]56CCCN5C[C@H](F)C6)nc(N5CCCOCC5)c4c4cn(C5CC5)nc34)c12` [Example 44, 4-[2-cyclopropyl-9-(1,4-oxazepan-4-yl)-7-[[(2R,8S)-2-fluoro-1,2,3,5,6,7-hexahydropyrrolizin-8-yl]methoxy]pyrazolo[4,3-f]quinazolin-4-yl]-5-ethyl-6-fluoro-naphthalen-2-ol], the IC50 in test [1] and in test [2] was 10 to 100 nM in each case.
With `CCc1c(F)ccc2cc(O)cc(-c3c(F)c4nc(OC[C@@]56CCCN5C[C@H](F)C6)cc(N5CCCOCC5)c4c4cn(C)nc34)c12` [Example 45, 5-ethyl-6-fluoro-4-[5-fluoro-2-methyl-9-(1,4-oxazepan-4-yl)-7-[[(2R,8S)-2-fluoro-1,2,3,5,6,7-hexahydropyrrolizin-8-yl]methoxy]pyrazolo[4,3-f]quinolin-4-yl]naphthalen-2-ol], the IC50 in test [1] and in test [2] was 100 to 10000 nM throughout.
As for `CCc1c(F)ccc2cc(O)cc(-c3cc4nc(OC[C@@]56CCCN5C[C@H](F)C6)nc(N5CCCOCC5)c4c4cnn(C)c34)c12` [Example 46, 5-ethyl-6-fluoro-4-[3-methyl-9-(1,4-oxazepan-4-yl)-7-[[(2R,8S)-2-fluoro-1,2,3,5,6,7-hexahydropyrrolizin-8-yl]methoxy]pyrazolo[4,3-f]quinazolin-4-yl]naphthalen-2-ol], the IC50 in test [1] lay in the range of 100 to 10000 nM. Also, in test [2], the “KRAS^G12D NEA” value is on record as “D (<49% inhibition at 10 μM)”.
As for `CCc1c(F)ccc2cc(O)cc(-c3cc4nc(OCC56CCCN5CCC6)nc(N5CCCOCC5)c4c4[nH]ncc34)c12` [Example 47, 5-ethyl-6-fluoro-4-[7-(1,2,3,5,6,7-hexahydropyrrolizin-8-ylmethoxy)-9-(1,4-oxazepan-4-yl)-1H-pyrazolo[3,4-f]quinazolin-4-yl]naphthalen-2-ol], the concentration for half-maximal inhibition (IC50) in test [1] and in test [2] was 100 to 10000 nM in each case.
With `Cn1ncc2c3c(N4CCCOCC4)nc(OC[C@@]45CCCN4C[C@H](F)C5)nc3cc(-c3cc(O)cc4ccccc34)c21` [Example 48, 4-[3-methyl-9-(1,4-oxazepan-4-yl)-7-[[(2R,8S)-2-fluoro-1,2,3,5,6,7-hexahydropyrrolizin-8-yl]methoxy]pyrazolo[4,3-f]quinazolin-4-yl]naphthalen-2-ol], the “KRAS^WT NEA” value in test [1] is given as “D (<49% inhibition at 10 μM)”. Moreover, in test [2], the “KRAS^G12D NEA” value was “D (<49% inhibition at 10 μM)”.
For the compound `CCc1c(F)ccc2cc(O)cc(-c3cc4nc(OC[C@@H]5C[C@H](C)CN5)nc(N5CCCn6nc(C(=O)N(C)C)cc6C5)c4c4cn(C)nc34)c12` [Example 49, 5-[4-(8-ethyl-7-fluoro-3-hydroxy-1-naphthyl)-2-methyl-7-[[(2S,4S)-4-methylpyrrolidin-2-yl]methoxy]pyrazolo[4,3-f]quinazolin-9-yl]-N,N-dimethyl-4,6,7,8-tetrahydropyrazolo[1,5-a][1,4]diazepine-2-carboxamide], the IC50 in test [1] fell in the range of 100 to 10000 nM. Also, the “KRAS^G12D NEA” value in test [2] is recorded as “D (<49% inhibition at 10 μM)”.
Take `CCc1c(F)ccc2cc(O)cc(-c3cc4nc(OC[C@@H]5CCN5)nc(N5CCCn6nc(C(=O)N(C)C)cc6C5)c4c4cn(C)nc34)c12` [Example 50, 5-[4-(8-ethyl-7-fluoro-3-hydroxy-1-naphthyl)-2-methyl-7-[[(2S)-azetidin-2-yl]methoxy]pyrazolo[4,3-f]quinazolin-9-yl]-N,N-dimethyl-4,6,7,8-tetrahydropyrazolo[1,5-a][1,4]diazepine-2-carboxamide]: the IC50 in test [1] was 10 to 100 nM; in test [2], at most 10 nM.
As to `CCc1c(F)ccc2cc(O)cc(-c3cc4nc(OC[C@@H]5C[C@@H](OC)CN5)nc(N5CCCn6nc(C(=O)N(C)C)cc6C5)c4c4cn(C)nc34)c12` [Example 51], the IC50 in test [1] was 10 to 100 nM; in test [2], at most 10 nM.
